Measured values from patent US20260285872A1, “COMPOUNDS AND METHODS FOR DEGRADING GSPT1” (priority 2023, published 2026).

Each compound was assayed on NCI-H1155 cells (assay: NSCLC cell viability, CellTiter-Glo, NCI-H1155 cells). Settings: Homo sapiens; NCI-H1155 cells, CellTiter-Glo, 72 hours of treatment; read-out: Cell viability classification (NCI-H1155).
Format: cell-based

Row | SMILES | IC50 [nM]
1 | O=C1CCC(N2Cc3cc(C(=O)N4CC5(CC5)c5ccc(F)cc54)ccc3C2=O)C(=O)N1 (centres unmarked) [Example 105, 3-(5-(6′-fluorospiro[cyclopropane-1,3′-indoline]-1′-carbonyl)-1-oxoisoindolin-2-yl)piperidine-2,6-dione] | < 10
2 | C[C@H]1CN(C(=O)c2ccc3c(c2)CN(C2CCC(=O)NC2=O)C3=O)c2cc(F)ccc21 (stereo partly drawn) [Example 132, 3-(5-((R)-6-fluoro-3-methylindoline-1-carbonyl)-1-oxoisoindolin-2-yl)piperidine-2,6-dione] | < 10
3 | Cc1c(N2CCC(=O)NC2=O)ccc2ccc(C(=O)N3CCc4ccc(F)cc43)cc12 [Example 134, 1-(7-(6-fluoroindoline-1-carbonyl)-1-methylnaphthalen-2-yl)dihydropyrimidine-2,4(1H,3H)-dione] | 10 to 100
4 | O=C1CCN(c2ccc3cc(COC(=O)Nc4cc(OC(F)(F)F)ccc4F)ccc3c2)C(=O)N1 [Example 143, (6-(2,4-dioxotetrahydropyrimidin-1(2H)-yl)naphthalen-2-yl)methyl(2-fluoro-5-(trifluoromethoxy)phenyl)carbamate] | 100 to 1000
5 | O=C1CCC(c2nc3ccc(C(=O)N4CCc5ccccc5C4)cc3o2)C(=O)N1 (centres unmarked) [Example 146, 3-(6-(1,2,3,4-tetrahydroisoquinoline-2-carbonyl)benzo[d]oxazol-2-yl)piperidine-2,6-dione] | 100 to 1000
6 | Cc1ccc2c(c1F)CN(C(=O)c1ccc3c(c1)CN(C1CCC(=O)NC1=O)C3=O)C2 (centres unmarked) [Example 149, 3-(5-(4-fluoro-5-methylisoindoline-2-carbonyl)-1-oxoisoindolin-2-yl)piperidine-2,6-dione] | 10 to 100
7 | O=C1CCC(c2nc3ccc(C(=O)N4Cc5cccc(OC(F)(F)F)c5C4)cc3o2)C(=O)N1 (centres unmarked) [Example 153, 3-(6-(4-(trifluoromethoxy)isoindoline-2-carbonyl)benzo[d]oxazol-2-yl)piperidine-2,6-dione] | > 1000
8 | O=C1CCC(N2Cc3cc(C(=O)N4CC5(CNC5)c5ccc(F)cc54)ccc3C2=O)C(=O)N1 (centres unmarked) [Example 154, 3-(5-(6′-fluorospiro[azetidine-3,3′-indoline]-1′-carbonyl)-1-oxoisoindolin-2-yl)piperidine-2,6-dione] | > 1000
9 | O=C1CCC(N2Cc3cc(C(=O)N4CC5(CCC(F)(F)CC5)C4)ccc3C2=O)C(=O)N1 (centres unmarked) [Example 157, 3-(5-(7,7-difluoro-2-azaspiro[3.5]nonane-2-carbonyl)-1-oxoisoindolin-2-yl)piperidine-2,6-dione] | 100 to 1000
10 | C[C@@H]1c2c(F)cccc2CN1C(=O)c1ccc2nc(C3CCC(=O)NC3=O)oc2c1 (stereo partly drawn) [Example 159, 3-(6-((R)-7-fluoro-1-methylisoindoline-2-carbonyl)benzo[d]oxazol-2-yl)piperidine-2,6-dione] | > 1000
11 | C[C@H]1c2c(F)cccc2CN1C(=O)c1ccc2nc(C3CCC(=O)NC3=O)oc2c1 (stereo partly drawn) [Example 160, 3-(6-((S)-7-fluoro-1-methylisoindoline-2-carbonyl)benzo[d]oxazol-2-yl)piperidine-2,6-dione] | 100 to 1000
12 | COc1cccc2c1CN(C(=O)c1ccc3nc(C4CCC(=O)NC4=O)oc3c1)C2 (centres unmarked) [Example 162, 3-(6-(4-methoxyisoindoline-2-carbonyl)benzo[d]oxazol-2-yl)piperidine-2,6-dione] | > 1000
13 | O=C1CCC(N2Cc3cc(C(=O)N4CC5(CCC(F)(F)C5)C4)ccc3C2=O)C(=O)N1 (centres unmarked) [Example 163, 3-(5-(6,6-difluoro-2-azaspiro[3.4]octane-2-carbonyl)-1-oxoisoindolin-2-yl)piperidine-2,6-dione] | 100 to 1000
14 | O=C1CCC(N2Cc3cc(C(=O)N4CC5(C4)CC(F)(c4ccc(F)cc4)C5)ccc3C2=O)C(=O)N1 (centres unmarked) [Example 168, 3-(5-(6-fluoro-6-(4-fluorophenyl)-2-azaspiro[3.3]heptane-2-carbonyl)-1-oxoisoindolin-2-yl)piperidine-2,6-dione] | 100 to 1000

More lines, now with the values ahead:

Row | IC50 [nM] | SMILES
15 | 10 to 100 | C[C@@H]1c2c(F)cccc2CN1C(=O)c1ccc2c(c1)CN(C1CCC(=O)NC1=O)C2=O (stereo partly drawn) [Example 139, 3-(5-((R)-7-fluoro-1-methylisoindoline-2-carbonyl)-1-oxoisoindolin-2-yl)piperidine-2,6-dione]
16 | > 1000 | C[C@H]1c2c(F)cccc2CN1C(=O)c1ccc2c(c1)CN(C1CCC(=O)NC1=O)C2=O (stereo partly drawn) [Example 140, 3-(5-((S)-7-fluoro-1-methylisoindoline-2-carbonyl)-1-oxoisoindolin-2-yl)piperidine-2,6-dione]
17 | 100 to 1000 | C[C@H]1c2cccc(F)c2CN1C(=O)c1ccc2c(c1)CN(C1CCC(=O)NC1=O)C2=O (stereo partly drawn) [Example 141, 3-(5-((S)-4-fluoro-1-methylisoindoline-2-carbonyl)-1-oxoisoindolin-2-yl)piperidine-2,6-dione]
18 | > 1000 | C[C@@H]1c2cccc(F)c2CN1C(=O)c1ccc2c(c1)CN(C1CCC(=O)NC1=O)C2=O (stereo partly drawn) [Example 142, 3-(5-((R)-4-fluoro-1-methylisoindoline-2-carbonyl)-1-oxoisoindolin-2-yl)piperidine-2,6-dione]
19 | 10 to 100 | O=C1CCC(N2Cc3cc(C(=O)N4Cc5ccc(F)c(Cl)c5C4)ccc3C2=O)C(=O)N1 (centres unmarked) [Example 144, 3-(5-(4-chloro-5-fluoroisoindoline-2-carbonyl)-1-oxoisoindolin-2-yl)piperidine-2,6-dione]
20 | 10 to 100 | O=C1CCC(N2Cc3cc(C(=O)N4Cc5cc(Cl)cc(F)c5C4)ccc3C2=O)C(=O)N1 (centres unmarked) [Example 148, 3-(5-(6-chloro-4-fluoroisoindoline-2-carbonyl)-1-oxoisoindolin-2-yl)piperidine-2,6-dione]
21 | 100 to 1000 | N#Cc1ccc2c(c1F)CN(C(=O)c1ccc3c(c1)CN(C1CCC(=O)NC1=O)C3=O)C2 (centres unmarked) [Example 150, 2-(2-(2,6-dioxopiperidin-3-yl)-1-oxoisoindoline-5-carbonyl)-4-fluoroisoindoline-5-carbonitrile]
22 | 10 to 100 | O=C1CCC(N2Cc3cc(C(=O)N4Cc5cccc(OC(F)(F)F)c5C4)ccc3C2=O)C(=O)N1 (centres unmarked) [Example 151, 3-(1-oxo-5-(4-(trifluoromethoxy)isoindoline-2-carbonyl)isoindolin-2-yl)piperidine-2,6-dione]
23 | 10 to 100 | O=C1CCC(N2Cc3cc(C(=O)N4Cc5cc(F)cc(Cl)c5C4)ccc3C2=O)C(=O)N1 (centres unmarked) [Example 152, 3-(5-(4-chloro-6-fluoroisoindoline-2-carbonyl)-1-oxoisoindolin-2-yl)piperidine-2,6-dione]
24 | < 10 | Cc1cc(F)c2c(c1)CN(C(=O)c1ccc3c(c1)CN(C1CCC(=O)NC1=O)C3=O)C2 (centres unmarked) [Example 155, 3-(5-(4-fluoro-6-methylisoindoline-2-carbonyl)-1-oxoisoindolin-2-yl)piperidine-2,6-dione]
25 | 10 to 100 | N#Cc1cc(F)c2c(c1)CN(C(=O)c1ccc3c(c1)CN(C1CCC(=O)NC1=O)C3=O)C2 (centres unmarked) [Example 156, 2-(2-(2,6-dioxopiperidin-3-yl)-1-oxoisoindoline-5-carbonyl)-7-fluoroisoindoline-5-carbonitrile]
26 | 100 to 1000 | O=C1CCC(N2Cc3cc(C(=O)N4CC(F)(c5ccc(F)cc5)C4)ccc3C2=O)C(=O)N1 (centres unmarked) [Example 170, 3-(5-(3-fluoro-3-(4-fluorophenyl)azetidine-1-carbonyl)-1-oxoisoindolin-2-yl)piperidine-2,6-dione]
